The record followed here is ChEMBL document CHEMBL1201862, “PubChem BioAssay data set” (2004).

SMILES strings stand for the structures. Calls of active or inactive are those of the source. A value given as a limit tells only on which side of the number the result lay.

Experiment [1] in a line: cytotoxicity toward HCT116 cells – cell-based, CellTiter-Glo luminescence, IC50, dose response (AID 1117332). The experiment is classed as functional. The following applies: HCT-116. On the technique in general: ATP-based viability assays read luminescence as a measure of living cells.
Experiment [2] in a line: cytotoxicity toward Colo320 cells – cell-based, CellTiter-Glo luminescence, IC50, dose response (AID 1117334). The experiment is classed as functional. The following applies: COLO 320.
Experiment [3] in a line: cytotoxicity toward HT-29 cells – cell-based, CellTiter-Glo luminescence, IC50, dose response (AID 1117330). The experiment is classed as functional.
Experiment [4] is described as follows: HCT116 cell viability decrease, GSK3B pretreatment – CellTiter-Glo, IC50, dose response (AID 1117339). The following applies: HCT-116. The experiment is classed as functional.
Experiment [5] in a line: RKO cell viability reduction, dose response, CellTiter-Glo luminescence (AID 1117322). The experiment is classed as functional.
Experiment [6] can be described thus: CellTiter-Glo luminescence survival assay, SW480 colon tumor line, concentration-response curve, half-maximal inhibitory concentration (AID 1117338). In kind it is functional.
Experiment [7] can be described thus: Reduced DLD-1 viability, concentration-response, CellTiter-Glo luminescence (AID 1117352). The experiment is classed as functional.
A short description of experiment [8]: SNU-C1 cell viability reduction, dose response, CellTiter-Glo luminescence (AID 1117323). In kind it is functional, cell-based.
For experiment [9], the target named is Glutathione-S-transferase (Schistosoma japonicum, UniProt Q26513). The experiment is described as follows: GST-antibody interaction or FRET quenching – biochemical, TR-FRET, artefact control for Vif-APOBEC3G degradation inhibitor project, dose response (AID 1117362). The experiment is classed as functional.
Glutathione-S-transferase, sequence (Q26513 whole entry): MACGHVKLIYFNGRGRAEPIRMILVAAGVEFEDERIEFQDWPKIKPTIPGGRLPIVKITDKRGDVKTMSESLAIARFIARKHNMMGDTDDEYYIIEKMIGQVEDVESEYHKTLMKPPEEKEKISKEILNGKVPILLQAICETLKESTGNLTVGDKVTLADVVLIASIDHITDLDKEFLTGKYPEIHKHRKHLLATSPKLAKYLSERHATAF
Experiment [10] in a line: loss of viability in HepG2 cells – cell-based, CellTiter-Glo, cherry-picked, cytotoxicity control for Shn3 inhibitor project, dose response (AID 624134). The experiment is classed as functional.
Experiment [11] is described as follows: non-specific 3'UTR reporter inhibition in Clone20-Shn3RL – cell-based, Renilla luciferase, cherry-picked, counter-screen for Shn3 inhibitor project, dose response (AID 624133). In kind it is functional. For orientation: Counterscreens check selectivity or assay interference.
Experiment [12] can be described thus: reduction of Shn3 3'UTR-driven luciferase in osteoblasts – cell-based, Clone20 osteoblasts, firefly luciferase, cherry-picked, dose response (AID 624132).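 Further: firefly luciferase luminescence from reporter carrying the Shn3 3'UTR in osteoblasts.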 In kind it is functional.
The test system of the next experiment is HEK293. The experiment is described as follows: EBV LMP1 TES2 canonical NF-kB signalling blockers – cell-based, HEK293, luciferase, cherry-pick, dose response (AID 588343). In kind it is functional. As to conditions: Homo sapiens.
Experiment [13] in a line: Shn3 3'UTR reporter signal decrease – cell-based, Clone20 osteoblasts, firefly luciferase, cherry-pick, set 2, Schnurri-3 inhibitor project, dose response (AID 720490).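 Further: actives lower the luminescence signal as inhibitors.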 In kind it is functional.
The next experiment addresses T1, Caspase-6 (Homo sapiens, UniProt P55212).
T1 sequence (P55212 whole entry): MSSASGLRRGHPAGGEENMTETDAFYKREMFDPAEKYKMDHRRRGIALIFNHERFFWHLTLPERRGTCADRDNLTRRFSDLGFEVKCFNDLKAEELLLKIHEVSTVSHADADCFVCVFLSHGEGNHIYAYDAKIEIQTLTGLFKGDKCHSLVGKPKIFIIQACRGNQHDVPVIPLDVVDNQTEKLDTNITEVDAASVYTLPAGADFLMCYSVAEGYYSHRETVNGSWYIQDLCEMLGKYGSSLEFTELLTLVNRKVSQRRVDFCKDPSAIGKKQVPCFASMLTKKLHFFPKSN
Put plainly: inhibition of CASP6 peptide cleavage – biochemical, VEID-R110 fluorescence, cherry-pick, dose response (AID 720632).

Experiment [14] concerns the target Bifunctional protein GlmU (Mycobacterium tuberculosis, UniProt P9WMN3). Put plainly: Inhibitors of Mycobacterial Glucosamine-1-phosphate acetyl transferase (GlmU). Secondary screen. On the set-up: species or system Mycobacterium tuberculosis H37Rv.
The target in experiment [15] is T2, Carboxy-terminal domain RNA polymerase II polypeptide A small phosphatase 1 (Homo sapiens, UniProt Q9GZU7).
T2 sequence (Q9GZU7 whole entry): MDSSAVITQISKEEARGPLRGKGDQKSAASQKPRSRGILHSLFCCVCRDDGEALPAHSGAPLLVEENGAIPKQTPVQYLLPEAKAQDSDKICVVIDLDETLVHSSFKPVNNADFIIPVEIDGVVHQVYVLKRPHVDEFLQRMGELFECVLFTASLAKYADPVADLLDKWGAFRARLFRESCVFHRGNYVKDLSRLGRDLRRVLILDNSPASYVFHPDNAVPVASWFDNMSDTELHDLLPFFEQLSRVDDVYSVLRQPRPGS
The experiment is described as follows: CTDSP1 inhibitors, concentration-response, biochemical, absorbance readout, ultra-high-throughput screen actives (AID 540297). In kind it is functional.

Experiment [16] is described as follows: blockers of HIV-1 envelope-mediated cell-cell fusion – cherry-pick, dose response (AID 652057). In kind it is functional, cell-based.
Experiment [17] is described as follows: viability loss in CEM21 cells – cell-based, CellTiter-Glo luminescence, cherry-picked, cytotoxicity control for viral fusion inhibitor project, dose response (AID 652042).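 Further: potency for signal decrease meaning cytotoxicity.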 In kind it is functional.
Experiment [18] can be described thus: Luminescence-based cell-based high throughput dose response assay to identify activators of the DAF-12 from the parasite S. stercoralis (ssDAF-12). The experiment is classed as functional.
The nature of experiment [19]: HIV-1 AD8 envelope cell-cell fusion blockers – cherry-pick, dose response (AID 652062).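 Further: luciferase signal from cell-cell fusion driven by HIV-1 clade B AD8 Env; potency is for inhibitors of fusion seen as a drop in luminescence.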 In kind it is functional, cell-based.
A short description of experiment [20]: blockers of HIV-1 ZM109 envelope-driven cell-cell fusion – HeLa effector, CEM target cells, luciferase, cherry-pick, dose response (AID 652058).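 Further: luciferase signal from HIV-1 Env mediated cell-cell fusion of effector and target cells.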 The experiment is classed as functional, cell-based.
Experiment [21] has as its target T3, Oxysterols receptor LXR-beta (Homo sapiens, UniProt P55055).
T3 sequence (P55055 whole entry): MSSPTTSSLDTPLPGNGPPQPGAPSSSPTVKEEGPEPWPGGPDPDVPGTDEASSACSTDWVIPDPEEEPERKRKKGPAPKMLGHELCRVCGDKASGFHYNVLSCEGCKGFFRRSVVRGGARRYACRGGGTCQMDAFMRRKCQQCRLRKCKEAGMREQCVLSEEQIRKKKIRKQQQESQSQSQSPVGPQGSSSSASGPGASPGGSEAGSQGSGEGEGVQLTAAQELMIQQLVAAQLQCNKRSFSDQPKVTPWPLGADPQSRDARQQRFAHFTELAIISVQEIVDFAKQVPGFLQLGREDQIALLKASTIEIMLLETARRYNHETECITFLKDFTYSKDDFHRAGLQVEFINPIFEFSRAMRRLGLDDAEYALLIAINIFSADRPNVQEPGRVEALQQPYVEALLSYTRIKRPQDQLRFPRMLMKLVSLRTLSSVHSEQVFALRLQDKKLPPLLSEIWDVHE
The experiment is described as follows: LXR agonists, Gal4 luciferase reporter, dose response, counter-screen for ssDAF-12 agonist project, cell-based, luminescence, HEK293, S. stercoralis campaign (AID 720737). The experiment is classed as functional. As to conditions: read-out: IC50 (the source's name). (A reporter such as luciferase makes a cellular process visible.)

Experiment [22] is described as follows: off-target signal loss in HeLa-CEM21 co-culture – HeLa F-luc CTL cells, cherry-picked, counter-screen for HIV-1 Env fusion inhibitor project, dose response (AID 652040).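 Further: potency for signal decrease marking cytotoxic or nonspecific inhibition.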 In kind it is functional, cell-based.
The nature of experiment [23]: Late stage assay provider results from the probe development effort to identify selective inhibitors of heat shock protein 90 (HSP90): Absorbance-based cell proliferation assay in SKBR3 cells. As to conditions: SK-BR-3. In kind it is functional.
The nature of experiment [24]: Late stage assay provider results from the probe development effort to identify selective inhibitors of heat shock protein 90 (HSP90): Absorbance-based cell proliferation assay in MCF7 cells. In kind it is functional.
Experiment [25] deals with Glucose-6-phosphate 1-dehydrogenase (Homo sapiens, UniProt P11413). The experiment is described as follows: inhibition of Homo sapiens G6PD, dose series – biochemical, fluorescence, selectivity assay for P. falciparum G6PD inhibitor project, dose response (AID 504792). In kind it is functional.
Glucose-6-phosphate 1-dehydrogenase, sequence (P11413 whole entry): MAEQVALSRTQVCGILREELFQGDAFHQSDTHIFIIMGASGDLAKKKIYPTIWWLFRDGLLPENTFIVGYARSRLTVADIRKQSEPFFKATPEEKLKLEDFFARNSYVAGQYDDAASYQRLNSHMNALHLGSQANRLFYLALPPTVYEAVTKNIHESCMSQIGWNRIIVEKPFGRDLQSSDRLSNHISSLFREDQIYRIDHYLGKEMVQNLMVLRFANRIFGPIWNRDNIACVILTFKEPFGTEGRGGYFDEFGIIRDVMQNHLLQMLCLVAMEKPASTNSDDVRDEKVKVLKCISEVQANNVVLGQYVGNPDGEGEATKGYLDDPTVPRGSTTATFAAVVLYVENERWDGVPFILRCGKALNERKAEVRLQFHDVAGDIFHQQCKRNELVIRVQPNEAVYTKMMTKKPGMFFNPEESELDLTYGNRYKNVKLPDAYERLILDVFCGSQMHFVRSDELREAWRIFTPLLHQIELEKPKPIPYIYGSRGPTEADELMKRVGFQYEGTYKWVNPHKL
The nature of experiment [26]: viability loss in THP-1 monocytes – THP-1 cells, cytotoxicity control for Vif-APOBEC3G degradation inhibitor project, dose response (AID 1117359). The experiment is classed as functional. The following applies: THP-1.
For experiment [27], the target named is T3, Oxysterols receptor LXR-beta. In kind it is functional, cell-based.

Bifunctional protein GlmU, sequence (P9WMN3 whole entry, the tested form may be a part): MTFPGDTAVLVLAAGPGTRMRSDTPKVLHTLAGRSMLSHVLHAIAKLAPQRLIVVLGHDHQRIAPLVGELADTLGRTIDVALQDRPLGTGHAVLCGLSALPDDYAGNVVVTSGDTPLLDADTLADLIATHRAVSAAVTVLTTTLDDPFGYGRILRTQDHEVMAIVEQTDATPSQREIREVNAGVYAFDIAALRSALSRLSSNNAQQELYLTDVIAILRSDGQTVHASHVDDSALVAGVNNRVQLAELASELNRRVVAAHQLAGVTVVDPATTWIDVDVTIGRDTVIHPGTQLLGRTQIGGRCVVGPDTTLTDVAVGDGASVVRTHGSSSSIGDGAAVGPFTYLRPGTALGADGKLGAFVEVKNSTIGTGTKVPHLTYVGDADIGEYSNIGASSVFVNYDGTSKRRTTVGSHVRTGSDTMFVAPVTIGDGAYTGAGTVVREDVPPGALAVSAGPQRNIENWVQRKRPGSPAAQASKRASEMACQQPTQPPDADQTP

In general, IC50 refers to the concentration that gives 50% inhibition. As to `O=C(NC(=O)c1c(F)cccc1F)Nc1ccc(Cl)c(Oc2ncc(C(F)(F)F)cc2Cl)c1` [FLUAZURON], the IC50 in experiment [1] was > 20 µM (inactive); in [2], > 20 µM (inactive); in experiment [3], > 20 µM (inactive); in experiment [4], 10.6 µM (inactive); in experiment [5], 11.8 µM (inactive); in [6] it was > 20 µM (inactive). Further, the IC50 in [7] and in experiment [8] was > 20 µM (inactive) each time.

Take `Cn1nccc1NC(=O)Nc1ccc(Cl)cc1`: the IC50 in [9] was 93.4 µM (active).

In general, AC50 refers to the concentration giving half of the maximal activity seen. Take `CCc1ccccc1NC(=O)COC(=O)c1c(C)nsc1NC`: the AC50 in experiment [10] is 64.7 µM (active); in experiment [11], 9.08 µM (active); in [12], 2.48 µM (active); in the experiment with HEK293 it was 133 µM (active); in [13], 2.76 µM (active).

Regarding `O=C(O)c1ccc(N2C(=O)c3cccc4c(C(=O)O)ccc(c34)C2=O)cc1`, the AC50 at Caspase-6 was 7.17 µM (active). For the same compound, the IC50 was 98.9 µM (active) in experiment [14] and 3.53 µM (active) in experiment [15].

Regarding `Fc1cccc(Cc2c(-c3ccco3)nc3c4ccccc4ccn23)c1`, the half-maximal activity concentration (AC50) is 1.12 µM (active) in experiment [16]; 44 µM (active) in [17]; 5.56 µM (active) in experiment [19]; 1.2 µM (active) in experiment [20]; 0.907 µM (active) in experiment [22]. Besides, the IC50 in [18] was > 67.5 µM (inactive). Besides, in [21], the EC50 is > 67.5 µM (inactive).

In the case of `CCCCCCCCOc1ccc(NC(=O)c2coc(=O)c(Br)c2)cc1`, the IC50 in [23] is 13.5 µM (inactive); in experiment [24], 12.9 µM (inactive).

The CC50 is the concentration at which the toxic effect on the cells reaches its halfway point. For `COc1cccc(C=Nc2cc(C(C)C)c(O)cc2C)c1O`, the IC50 in experiment [25] is 33.9 µM (inactive). The CC50 in experiment [26] was 27.2 µM (active).

As to `CC(=O)N(CC(O)CN(C(C)=O)c1c(I)c(C(=O)NCC(O)CO)c(I)c(C(=O)NCC(O)CO)c1I)c1c(I)c(C(=O)NCC(O)CO)c(I)c(C(=O)NCC(O)CO)c1I` (stereo not drawn) [IODIXANOL], the IC50 in experiment [1], in experiment [2], in experiment [3], in experiment [4], in [5] and in [6] was > 20 µM (inactive) in each case. For the same compound, the IC50 in experiment [7] and in [8] was > 20 µM (inactive) each time.

Turning to `CC(C)(C)NC(=O)NC(=O)COc1ccc(Br)cc1Br`, the EC50 (in the experiment “cells”; in [27]) was > 67.5 µM (inactive) each time.
